From patent US5258406A, “Sulfonimidamides” (priority 1992, dated 1993)
Read-outs that look alike come from different tables or passages of the source.

Test system: 6C3HED lymphosarcoma
Experiment: animal or person
Type: in vivo
Method: The compounds were tested in C3H mice bearing a 6C3HED lymphosarcoma, also known as the Gardner lymphosarcoma (GLS), and in a variety of human tumor xenografts in CD1 nu/nu mice, including CX-1, LX-1, HXGC3, and VRC5. The 6C3HED lymphosarcoma was obtained from the Division of Cancer Treatment, National […] Institute, Tumor Bank, maintained at E. G. and G. Mason Research (Worcester, Mass.). The CX-1 human colon carcinoma and the LX-1 human lung carcinoma xenografts were obtained from the National Cancer Institute. The HXGC3 and VRC5 human colon xenografts were obtained from Dr. P. J. Houghton, St. Jude Children's Hospital in Memphis (see Br. J. Cancer, 37, 213 (1978)). First passage tumor was stored in liquid nitrogen using standard techniques. The transplanted tumor was reestablished from the Tumor Bank every six months or as needed. The tumor was maintained by serial passage twice weekly in C3H mice.
In the procedure the tumor was removed from passage animals and minced into 1- to 3-mm square fragments using sterile techniques. Tumor pieces were checked for sterility using both Antibiotic Medium 1 and Brain Heart Infusion (Difco, Detroit, Mich.). Recipient mice were shaved and tumor pieces were implanted subcutaneously in the auxiliary region by trocar. Drug therapy on the appropriate schedule was initiated on the day after tumor implant for 6C3HED and after a seven (7) day delay for xenografts (or other delay as noted in Table 2). The compound being tested was mixed with 2.5% Emulphor EL620 from GAF Corporation (1:40 dilution in saline). Food and water were provided ad libitium. The drug was administered orally in 0.5 ml of 2.5% Emulphor (unless otherwise indicated). The tumor was measured the day after treatment ended with two dimensional measurements (width and length) of the tumor taken using automated digital calipers interfaced to a microcomputer. Approximate weight for the tumor was calculated using the following formula [Worzalla, J. F., et al., Invest. New Drugs, 8, 241 (1990], (tumor weight in mg)=(width in mm)^2 ×(length in mm)/2.
At least one control group of an equal number of mice was treated with the same volume of 2.5% Emulphor only. The percent inhibition was determined by subtracting the ratio of the mean tumor size of the test group relative to the control group from one and multiplying the result times 100.
The results of several experiments in mice bearing a 6C3HED lymphosarcoma (or other tumor where indicated) when the indicated compounds were administered are provided in Table 2. In Table 2, column 1 gives the Example number of the compound used, column 2 lists the dose level in mg/kg, column 3 provides the percent inhibition of tumor growth, column 4 gives the number of mice which died relative to the total number of animals in the group, column 5 gives the method of administration of the compound, and column 6 gives the dosage schedule. The protocol used with other tumors was the same as with the 6C3HED lymphosarcoma.

[1] = Mus musculus, 6C3HED, po, read-out: % inhibition of tumor growth, oral, 150 mg/kg, BIDX 8
[2] = Mus musculus, 6C3HED, po, read-out: % inhibition of tumor growth, oral, 300 mg/kg, BIDX 8
[3] = Mus musculus, 6C3HED, ip, read-out: % inhibition of tumor growth, IP, 300 mg/kg, DX 8
[4] = Mus musculus, 6C3HED, po, read-out: % inhibition of tumor growth, oral, 150 mg/kg, DX 8
[5] = Mus musculus, 6C3HED, po, read-out: % inhibition of tumor growth, oral, 300 mg/kg, DX 8
[6] = Mus musculus, 6C3HED, ip, read-out: % inhibition of tumor growth, IP, 150 mg/kg, DX 8

Row | Structure (SMILES) | inhibition in vivo at 150 mg/kg [1] | inhibition in vivo at 300 mg/kg [2] | Tox/Tot (mice which died / total) (oral, 150 mg/kg, BIDX 8) | Tox/Tot (mice which died / total) (oral, 300 mg/kg, BIDX 8) | Tox/Tot (mice which died / total) (IP, 300 mg/kg, DX 8) | Tox/Tot (mice which died / total) (IP, 600 mg/kg, DX 8) | inhibition in vivo at 300 mg/kg [3] | inhibition in vivo at 600 mg/kg (Mus musculus, 6C3HED, ip, read-out: % inhibition of tumor growth, IP, 600 mg/kg, DX 8) | inhibition in vivo at 150 mg/kg [4] | inhibition in vivo at 300 mg/kg [5] | Tox/Tot (mice which died / total) (oral, 150 mg/kg, DX 8) | Tox/Tot (mice which died / total) (oral, 300 mg/kg, DX 8) | Tox/Tot (mice which died / total) (IP, 150 mg/kg, DX 8) | inhibition in vivo at 150 mg/kg [6]
1 | Cc1ccc(S(N)(=O)=NC(=O)N(C)c2ccc(Cl)cc2)cc1 (stereo not shown) [Example 20] | 83% | 93% | 0/10 | 0/10 |  |  |  |  |  |  |  |  |  | 
2 | Cc1ccc(S(=O)(=NC(=O)Nc2ccc(Cl)cc2)NCCCO)cc1 (stereo not shown) [Example 11] | 65% | 89% | 0/10 | 2/10 |  |  |  |  |  |  |  |  |  | 
3 | Cc1ccc(S(=O)(=NC(=O)Nc2ccc(Cl)cc2)N(C)C)cc1 (stereo not shown) [Example 18] |  |  |  |  | 4/8 | 6/8 | 93% | 99% | 45% | 63% | 0/10 | 0/10 |  | 
4 | CCCNS(=O)(=NC(=O)Nc1ccc(Cl)cc1)c1ccc(C)cc1 (stereo not shown) [Example 5] |  |  |  |  | 0/10 |  | 44% |  | 64% | 69% | 0/10 | 0/10 | 0/10 | 34%
5 | Cc1ccc(S(=O)(=NC(=O)Nc2ccc(Cl)cc2)Nc2ccccc2)cc1 (stereo not shown) [Example 14] |  |  |  |  | 3/10 |  | 38% |  | 0% | 5% | 0/10 | 0/10 | 2/10 | 1%
6 | Cc1ccc(S(=O)(=NC(=O)Nc2ccc(Cl)cc2)NCCO)cc1 (stereo not shown) [Example 10] |  |  |  |  |  |  |  |  | 40% | 60% | 0/10 | 0/10 |  | 
7 | Cc1ccc(S(=O)(=NC(=O)Nc2ccc(Cl)cc2)NCCc2ccccc2)cc1 (stereo not shown) [Example 13] | 39% | 48% | 0/10 | 0/10 |  |  |  |  |  |  |  |  |  | 
